This note sets out measurements from ChEMBL document CHEMBL1156432, “Structure and regulation of the human Nek2 centrosomal kinase” (J Biol Chem, 2007).

Series [1] has as its target Vascular endothelial growth factor receptor 2 (Homo sapiens, UniProt P35968). Kind of series: Inhibition of VEGFR2.
In series [2] the target is Epidermal growth factor receptor (Homo sapiens, UniProt P00533). The experiment in a line: Inhibition of EGFR.
Series [3] addresses Serine/threonine-protein kinase Nek2 (Homo sapiens, UniProt P51955, T175A). Kind of series: Inhibition of human recombinant Nek2 T175A mutant by coupled pyruvate kinase/lactate dehydrogenase assay.
Series [4] concerns the target Platelet-derived growth factor receptor beta (Homo sapiens, UniProt P09619). Kind of series: Inhibition of PDGFRbeta.
Substrate in series [5]: CC[C@H](C)[C@H](NC(=O)[C@H](CO)NC(=O)[C@H](CO)NC(=O)[C@H](CCCNC(=N)N)NC(=O)[C@H](Cc1ccccc1)NC(=O)[C@@H](NC(=O)CN)[C@@H](C)O)C(=O)N[C@@H](CCCNC(=N)N)C(=O)N[C@@H](CCCNC(=N)N)C(=O)N[C@@H](CC(C)C)C(=O)N[C@@H](CO)C(=O)N[C@H](C(=O)N[C@@H](CCCNC(=N)N)C(=O)N[C@@H](CCCNC(=N)N)C(=O)N[C@@H](CCCNC(=N)N)C(=O)N[C@@H](Cc1ccc(O)cc1)C(=O)O)[C@@H](C)O
The experiment in a line: Activity of human recombinant Nek2 T175A mutant assessed as substrate phosphorylation.

Chain of Vascular endothelial growth factor receptor 2 (P35968 whole entry): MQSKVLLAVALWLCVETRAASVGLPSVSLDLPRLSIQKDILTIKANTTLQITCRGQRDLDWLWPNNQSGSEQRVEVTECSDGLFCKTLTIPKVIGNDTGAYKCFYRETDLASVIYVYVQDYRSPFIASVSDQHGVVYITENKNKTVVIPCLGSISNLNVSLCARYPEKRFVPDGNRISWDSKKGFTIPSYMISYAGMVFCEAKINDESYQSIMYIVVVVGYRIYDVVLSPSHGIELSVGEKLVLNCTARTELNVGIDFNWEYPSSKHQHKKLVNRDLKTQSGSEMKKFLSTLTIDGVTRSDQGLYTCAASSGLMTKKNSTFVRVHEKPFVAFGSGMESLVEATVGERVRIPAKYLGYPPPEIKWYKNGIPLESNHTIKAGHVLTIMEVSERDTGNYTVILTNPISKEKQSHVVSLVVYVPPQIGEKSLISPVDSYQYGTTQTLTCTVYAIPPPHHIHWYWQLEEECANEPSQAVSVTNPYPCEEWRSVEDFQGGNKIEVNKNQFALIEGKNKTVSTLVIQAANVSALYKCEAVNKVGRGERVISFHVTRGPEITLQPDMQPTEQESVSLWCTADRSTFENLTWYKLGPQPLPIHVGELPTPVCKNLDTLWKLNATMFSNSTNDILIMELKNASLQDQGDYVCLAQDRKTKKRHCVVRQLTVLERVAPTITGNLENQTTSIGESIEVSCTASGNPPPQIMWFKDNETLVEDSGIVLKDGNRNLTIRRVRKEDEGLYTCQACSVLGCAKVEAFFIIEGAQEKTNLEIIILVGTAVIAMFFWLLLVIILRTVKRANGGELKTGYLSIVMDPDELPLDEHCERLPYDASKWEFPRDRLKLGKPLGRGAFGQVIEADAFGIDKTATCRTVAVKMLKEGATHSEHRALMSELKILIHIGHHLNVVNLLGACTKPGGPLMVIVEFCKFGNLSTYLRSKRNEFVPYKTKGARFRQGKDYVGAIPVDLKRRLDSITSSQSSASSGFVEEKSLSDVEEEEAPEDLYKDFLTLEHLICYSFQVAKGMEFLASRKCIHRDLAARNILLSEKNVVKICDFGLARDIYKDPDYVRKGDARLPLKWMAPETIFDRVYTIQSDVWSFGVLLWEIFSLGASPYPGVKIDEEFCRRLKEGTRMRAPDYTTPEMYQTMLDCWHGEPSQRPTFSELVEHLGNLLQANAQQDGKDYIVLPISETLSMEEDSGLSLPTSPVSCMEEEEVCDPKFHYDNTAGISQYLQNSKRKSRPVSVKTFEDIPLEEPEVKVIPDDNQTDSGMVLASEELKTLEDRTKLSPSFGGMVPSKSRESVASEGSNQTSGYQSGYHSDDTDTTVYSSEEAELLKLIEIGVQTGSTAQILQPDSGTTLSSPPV
Chain of Platelet-derived growth factor receptor beta (P09619 whole entry): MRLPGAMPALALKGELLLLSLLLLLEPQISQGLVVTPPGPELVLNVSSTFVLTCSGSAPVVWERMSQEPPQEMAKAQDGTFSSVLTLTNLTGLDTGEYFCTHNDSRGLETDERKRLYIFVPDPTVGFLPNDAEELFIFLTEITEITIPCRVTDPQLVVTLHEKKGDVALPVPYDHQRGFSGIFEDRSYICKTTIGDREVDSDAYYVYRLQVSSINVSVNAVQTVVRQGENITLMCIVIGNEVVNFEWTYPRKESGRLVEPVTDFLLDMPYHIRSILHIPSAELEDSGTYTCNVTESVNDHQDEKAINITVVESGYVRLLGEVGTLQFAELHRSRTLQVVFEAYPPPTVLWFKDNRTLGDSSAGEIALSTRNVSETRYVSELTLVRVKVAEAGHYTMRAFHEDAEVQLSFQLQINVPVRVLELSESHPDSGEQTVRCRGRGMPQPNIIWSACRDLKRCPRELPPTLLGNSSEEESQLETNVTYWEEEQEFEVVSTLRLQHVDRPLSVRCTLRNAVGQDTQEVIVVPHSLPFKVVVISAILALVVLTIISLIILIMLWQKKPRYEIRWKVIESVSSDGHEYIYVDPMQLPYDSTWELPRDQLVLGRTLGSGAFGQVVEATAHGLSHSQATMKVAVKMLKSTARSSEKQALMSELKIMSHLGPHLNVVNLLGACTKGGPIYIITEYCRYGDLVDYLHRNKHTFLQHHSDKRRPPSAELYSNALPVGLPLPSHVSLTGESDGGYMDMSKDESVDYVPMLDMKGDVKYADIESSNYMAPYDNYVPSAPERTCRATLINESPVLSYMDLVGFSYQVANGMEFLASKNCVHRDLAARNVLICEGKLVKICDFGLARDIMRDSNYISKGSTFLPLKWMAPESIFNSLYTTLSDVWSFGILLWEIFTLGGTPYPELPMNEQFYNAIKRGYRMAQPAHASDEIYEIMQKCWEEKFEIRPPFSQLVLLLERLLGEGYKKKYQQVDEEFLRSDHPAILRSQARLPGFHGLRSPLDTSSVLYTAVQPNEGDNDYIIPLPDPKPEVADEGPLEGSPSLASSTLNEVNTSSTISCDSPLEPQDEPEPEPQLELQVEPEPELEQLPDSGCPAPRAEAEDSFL
Chain of Epidermal growth factor receptor (P00533 whole entry): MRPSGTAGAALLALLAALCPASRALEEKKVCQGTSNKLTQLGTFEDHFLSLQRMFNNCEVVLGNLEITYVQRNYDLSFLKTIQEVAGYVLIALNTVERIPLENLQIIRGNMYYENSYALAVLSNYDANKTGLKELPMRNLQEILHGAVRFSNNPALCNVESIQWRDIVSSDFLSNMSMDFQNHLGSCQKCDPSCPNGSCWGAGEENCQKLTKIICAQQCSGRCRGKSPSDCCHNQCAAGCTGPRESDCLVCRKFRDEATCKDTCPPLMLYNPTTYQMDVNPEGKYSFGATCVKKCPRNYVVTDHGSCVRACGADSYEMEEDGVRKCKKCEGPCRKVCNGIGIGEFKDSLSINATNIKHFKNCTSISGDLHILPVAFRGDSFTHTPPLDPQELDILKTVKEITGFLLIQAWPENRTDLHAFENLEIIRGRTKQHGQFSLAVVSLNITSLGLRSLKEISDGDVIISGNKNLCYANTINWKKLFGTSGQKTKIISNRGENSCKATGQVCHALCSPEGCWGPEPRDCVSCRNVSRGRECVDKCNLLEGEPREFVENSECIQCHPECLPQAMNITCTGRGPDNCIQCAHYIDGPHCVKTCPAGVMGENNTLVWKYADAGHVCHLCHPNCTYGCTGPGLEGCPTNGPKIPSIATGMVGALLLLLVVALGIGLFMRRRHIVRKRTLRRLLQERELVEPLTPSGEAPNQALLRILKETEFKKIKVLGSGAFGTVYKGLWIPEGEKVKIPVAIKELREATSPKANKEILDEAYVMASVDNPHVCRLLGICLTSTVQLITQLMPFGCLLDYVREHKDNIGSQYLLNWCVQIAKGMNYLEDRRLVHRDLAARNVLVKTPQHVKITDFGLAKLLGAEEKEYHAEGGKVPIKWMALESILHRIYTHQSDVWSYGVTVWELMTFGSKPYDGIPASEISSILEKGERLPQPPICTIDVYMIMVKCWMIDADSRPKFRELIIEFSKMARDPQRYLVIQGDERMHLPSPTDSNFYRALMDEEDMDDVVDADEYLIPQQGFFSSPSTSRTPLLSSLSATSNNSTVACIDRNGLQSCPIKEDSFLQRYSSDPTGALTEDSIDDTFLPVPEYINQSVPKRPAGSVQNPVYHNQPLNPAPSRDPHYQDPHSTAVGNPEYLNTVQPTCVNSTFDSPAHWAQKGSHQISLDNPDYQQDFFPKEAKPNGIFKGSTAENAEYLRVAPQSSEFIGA

Turning to `CCN(CC)CCNC(=O)c1c(C)[nH]c(/C=C2\C(=O)Nc3ccc(Cl)cc32)c1C` [SU-11652], the half-inhibitory concentration (IC50) in series [1] was 3 µM; in series [2], 3 µM; in series [3] it was 8 µM; in series [4], 3 µM.

B1: Serine/threonine-protein kinase Nek2 (Homo sapiens), P51955 T175A (protein)
chain: MPSRAEDYEVLYTIGTGSYGRCQKIRRKSDGKILVWKELDYGSMTEAEKQMLVSEVNLLRELKHPNIVRYYDRIIDRTNTTLYIVMEYCEGGDLASVITKGTKERQYLDEEFVLRVMTQLTLALKECHRRSDGGHTVLHRDLKPANVFLDGKQNVKLGDFGLARILNHDTSFAKAFVGTPYYMSPEQMNRMSYNEKSDIWSLGCLLYELCALMPPFTAFSQKELAGKIREGKFRRIPYRYSDELNEIITRMLNLKDYHRPSVEEILENPLIADLVADEQRRNLERRGRQLGEPEKSQDSSPVLSELKLKEIQLQERERALKAREERLEQKEQELCVRERLAEDKLARAENLLKNYSLLKERKFLSLASNPELLNLPSSVIKKKVHFSGESKENIMRSENSESQLTSKSKCKDLKKRLHAAQLRAQALSDIEKNYQLKSRQILGMR
As to B1, in series [5], the Km was found to be 90 µM and the kcat turned out to be 0.283 s⁻¹.
